Results reported in the supplement of paper PMC11061612.

Assays:
Experiment in all cases: Bliss excess, mean over the matrix (fraction); higher = more synergy
[1] = test system: COR-L23 (Non-Small Cell Lung Carcinoma)
Method in brief: (§1)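 Cell lines in DMEM/F12 or RPMI with 10% FBS were plated in 1536-well plates, held 24 hours at 37°C, 5% CO2, then given two-drug dose matrices for 72 hours (DMSO typically 0.2%). Viability was read by CellTiter-Glo 2.0 luminescence and scaled as inhibition from 0 (vehicle wells) to 1 (blank wells). Combination Emax is the second-highest inhibition in the matrix; Bliss excess is observed combination effect minus expected EA + EB − EA·EB, EA and EB being single-agent effects.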

[2] = test system: CTV-1 (T-Lymphoblastic Leukemia)
Method in brief: as §1

[3] = test system: DMS-273 (Small Cell Lung Carcinoma)
Method in brief: as §1

[4] = test system: DOV13 (Ovarian Carcinoma)
Method in brief: as §1

DSH1 (Bladder Carcinoma) = test system: DSH1 (Bladder Carcinoma)
Method in brief: as §1

[5] = test system: HCC2157 (Breast Carcinoma)
Method in brief: as §1

[6] = test system: HT-29 (Colorectal Carcinoma)
Method in brief: as §1

[7] = test system: IHH-4 (Thyroid Gland Carcinoma)
Method in brief: as §1

[8] = test system: LS-513 (Colorectal Carcinoma)
Method in brief: as §1

[9] = test system: LU-99A (Non-Small Cell Lung Carcinoma)
Method in brief: as §1

[10] = test system: NCI-H1299 (Non-Small Cell Lung Carcinoma)
Method in brief: as §1

[11] = test system: NCI-H1781 (Lung Adenocarcinoma)
Method in brief: as §1

NCI-H2595 (Mesothelioma) = test system: NCI-H2595 (Mesothelioma)
Method in brief: as §1

RH-1 (Ewing's Sarcoma) = test system: RH-1 (Ewing's Sarcoma)
Method in brief: as §1

SK-N-FI (Neuroblastoma) = test system: SK-N-FI (Neuroblastoma)
Method in brief: as §1

[12] = test system: SUIT-2 (Pancreatic Carcinoma)
Method in brief: as §1

[13] = test system: SW1088 (Low Grade Glioma)
Method in brief: as §1

[14] = test system: SW756 (Cervical Carcinoma)
Method in brief: as §1

[15] = test system: TE-5 (Esophageal Squamous Cell Carcinoma)
Method in brief: as §1

[16] = test system: U-266 (Plasma Cell Myeloma)
Method in brief: as §1

Compound	Bliss excess [1]	Bliss excess [2]	Bliss excess [3]	Bliss excess [4]	Bliss excess (DSH1 (Bladder Carcinoma))	Bliss excess [5]	Bliss excess [6]	Bliss excess [7]	Bliss excess [8]	Bliss excess [9]	Bliss excess [10]	Bliss excess [11]	Bliss excess (NCI-H2595 (Mesothelioma))	Bliss excess (RH-1 (Ewing's Sarcoma))	Bliss excess (SK-N-FI (Neuroblastoma))	Bliss excess [12]	Bliss excess [13]	Bliss excess [14]	Bliss excess [15]	Bliss excess [16]
CCN(CCO)CCCOc1ccc2c(Nc3cc(CC(=O)Nc4cccc(F)c4)[nH]n3)ncnc2c1 [AZD2811] + C=CCn1c(=O)c2cnc(Nc3ccc(N4CCN(C)CC4)cc3)nc2n1-c1cccc(C(C)(C)O)n1 [AZD1775] (first compound max 1 µM, partner max 1 µM)	-0.0043	0.0014	0.0064	-0.0063	-0.0013	-0.0071	-0.0446	0.0451	-0.0974	-0.0354	-0.024	0.0795	-0.0509	-0.0163	-0.0452	-0.017	0.0034	-0.01	-0.076	0.0031
CC(=O)c1c(C)c2cnc(Nc3ccc(N4CCNCC4)cn3)nc2n(C2CCCC2)c1=O [Palbociclib] + Cn1cnc2c(F)c(Nc3ccc(Br)cc3Cl)c(C(=O)NOCCO)cc21 [Selumetinib] (first compound max 10 µM, 7x7, partner max 10 µM)	0.0224	0.0496	-0.0393	-0.233	-0.0834	-0.036	0.0336	0.0575	0.0207	-0.0398	0.108	-0.0532	-0.0429	-0.0379	0.016	0.0481	-0.0327	-0.0736	-0.0511	0.0393
Cc1nc(Nc2ncc(C(=O)Nc3c(C)cccc3Cl)s2)cc(N2CCN(CCO)CC2)n1 [Dasatinib] + CC(=O)Nc1cccc(-n2c(=O)n(C3CC3)c(=O)c3c(Nc4ccc(I)cc4F)n(C)c(=O)c(C)c32)c1 [Trametinib] (first compound max 2 µM, 7x7, partner max 1 µM)	0.0284	0.0181	-0.0922	0.0135	-0.0516	-0.0199	0.0984	0.112	0.0777	-0.0137	0.035	-0.0355	-0.0413	-0.0353	0.0118	0.0197	-0.0087	-0.0659	-0.0099	0.0609
CN(C)CCCOc1ccc(-c2ccc3ncc4c(c3c2)n(C2CCOCC2)c(=O)n4C)cn1 [AZD0156] + O=C(c1cc(Cc2n[nH]c(=O)c3ccccc23)ccc1F)N1CCN(C(=O)C2CC2)CC1 [Olaparib] (first compound max 3 µM, partner max 3 µM)	-0.0155	0.0654	0.155	0.0258	0.0328	0.0313	0.015	0.0949	0.0071	-0.0145	0.0495	0.0077	-0.0288	0.265	-0.0123	0.028	0.022	-0.0192	-0.0241	-0.106
CN(CCO)CC[C@H](CSc1ccccc1)Nc1ccc(S(=O)(=O)NC(=O)c2ccc(N3CCC([C@@H](O)c4ccccc4-c4ccc(Cl)cc4)CC3)cc2)cc1S(=O)(=O)C(F)(F)F [AZD4320] + C1CN(CCC1(C(=O)N[C@@H](CCO)C2=CC=C(C=C2)Cl)N)C3=NC=NC4=C3C=CN4 [Capivasertib] (first compound max 1 µM, 7x7, partner max 3 µM)	-0.0254	-0.0365	-0.0782	0.0131	-0.0038	0.0191	-0.0331	-0.0253	-0.0728	-0.0693	-0.029	-0.0313	-0.0458	0.0468	-0.0158	-0.054	0.0242	-0.0506	-0.0068	-0.0061
COc1nnc2ccc(N3CCC(c4ccc(OCCN5CCN(C)C(=O)[C@H]5C)cc4)CC3)nn12 [AZD5153] + CC1(C)CCC(CN2CCN(c3ccc(C(=O)NS(=O)(=O)c4ccc(NCC5CCOCC5)c([N+](=O)[O-])c4)c(Oc4cnc5[nH]ccc5c4)c3)CC2)=C(c2ccc(Cl)cc2)C1 [Venetoclax] (first compound max 1 µM, 7x7, partner max 1 µM)	-0.0504	-0.0322	-0.0627	-0.0751	-0.0524	0.0328	-0.0288	-0.0621	-0.0442	-0.0853	-0.0496	-0.0599	0.0185	-0.0391	-0.0581	-0.0769	-0.0439	-0.0461	-0.0087	-0.157
Cn1cnc2c(F)c(Nc3ccc(Br)cc3Cl)c(C(=O)NOCCO)cc21 [Selumetinib] + C[C@@H]1COCCN1C2=NC(=NC(=C2)C3(CC3)[S@](=N)(=O)C)C4=C5C=CNC5=NC=C4 [AZD6738] (first compound max 10 µM, 7x7, partner max 10 µM)	-0.0148	-0.001	-0.0676	-0.11	-0.0734	0.0059	-0.019	0.0224	0.0046	0.0565	0.0454	-0.0397	-0.0326	-0.0215	0.0325	0.0298	-0.0737	0.0323	-0.0388	-0.0303
